Laboratory results published in US8192962B2, “Processes for detecting toxic substances” (Daikin Industries, Ltd., priority 2001, dated 2012).

Tested on: Energy system protein genes
Experiment: DNA chip mRNA expression in yeast, energy system protein genes (Table 4)
Format: cell-based, Saccharomyces cerevisiae S288C
In short: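 Whole-genome yeast DNA chip hybridization (65° C., >12 h) of Cy-labeled cDNA from S288C cells exposed 2 h at 25° C. to a sub-lethal toxicant dose in YPD; value is intensity relative to chemical-free control.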

[Cl][Hg][Cl] [(3), HgCl2]
The level of expressed mRNA in the presence of chemical substance/The level of expressed mRNA in the absence of chemical substance (yeast gene YAL060W): 3.2 | The level of expressed mRNA in the presence of chemical substance/The level of expressed mRNA in the absence of chemical substance (yeast gene YBL058W, cells incubated two hours with the chemical substance): 0.5 | The level of expressed mRNA in the presence of chemical substance/The level of expressed mRNA in the absence of chemical substance (yeast gene YBL099W, cells incubated two hours with the chemical substance): 3.1 | The level of expressed mRNA in the presence of chemical substance/The level of expressed mRNA in the absence of chemical substance (yeast gene YBR001C, cells incubated two hours with the chemical substance): 1.1 | The level of expressed mRNA in the presence of chemical substance/The level of expressed mRNA in the absence of chemical substance (yeast gene YBR185C, cells incubated two hours with the chemical substance): 1.3 | The level of expressed mRNA in the presence of chemical substance/The level of expressed mRNA in the absence of chemical substance (yeast gene YBR221C, cells incubated two hours with the chemical substance): 3.2 | The level of expressed mRNA in the presence of chemical substance/The level of expressed mRNA in the absence of chemical substance (yeast gene YCL040W): 10.1 | The level of expressed mRNA in the presence of chemical substance/The level of expressed mRNA in the absence of chemical substance (yeast gene YCR012W): 5.1 | The level of expressed mRNA in the presence of chemical substance/The level of expressed mRNA in the absence of chemical substance (yeast gene YCR046C, cells incubated two hours with the chemical substance): 1.2 | The level of expressed mRNA in the presence of chemical substance/The level of expressed mRNA in the absence of chemical substance (yeast gene YCR105W, cells incubated two hours with the chemical substance): 1.2 | The level of expressed mRNA in the presence of chemical substance/The level of expressed mRNA in the absence of chemical substance (yeast gene YDL021W): 2.4 | The level of expressed mRNA in the presence of chemical substance/The level of expressed mRNA in the absence of chemical substance (yeast gene YDL067C, cells incubated two hours with the chemical substance): 1.6 | The level of expressed mRNA in the presence of chemical substance/The level of expressed mRNA in the absence of chemical substance (yeast gene YDL078C, cells incubated two hours with the chemical substance): 1.2 | The level of expressed mRNA in the presence of chemical substance/The level of expressed mRNA in the absence of chemical substance (yeast gene YDL107W, cells incubated two hours with the chemical substance): 1.0 | The level of expressed mRNA in the presence of chemical substance/The level of expressed mRNA in the absence of chemical substance (yeast gene YDL174C): 0.9 | The level of expressed mRNA in the presence of chemical substance/The level of expressed mRNA in the absence of chemical substance (yeast gene YDL181W, cells incubated two hours with the chemical substance): 1.9 | The level of expressed mRNA in the presence of chemical substance/The level of expressed mRNA in the absence of chemical substance (yeast gene YDR001C): 2.6 | The level of expressed mRNA in the presence of chemical substance/The level of expressed mRNA in the absence of chemical substance (yeast gene YDR050C, cells incubated two hours with the chemical substance): 2.3 | The level of expressed mRNA in the presence of chemical substance/The level of expressed mRNA in the absence of chemical substance (yeast gene YDR079W, cells incubated two hours with the chemical substance): 0.8 | The level of expressed mRNA in the presence of chemical substance/The level of expressed mRNA in the absence of chemical substance (yeast gene YDR178W, cells incubated two hours with the chemical substance): 3.4 | The level of expressed mRNA in the presence of chemical substance/The level of expressed mRNA in the absence of chemical substance (yeast gene YDR231C): 1.0 | The level of expressed mRNA in the presence of chemical substance/The level of expressed mRNA in the absence of chemical substance (yeast gene YDR298C, cells incubated two hours with the chemical substance): 2.6 | The level of expressed mRNA in the presence of chemical substance/The level of expressed mRNA in the absence of chemical substance (yeast gene YDR377W, cells incubated two hours with the chemical substance): 1.3 | The level of expressed mRNA in the presence of chemical substance/The level of expressed mRNA in the absence of chemical substance (yeast gene YDR529C, cells incubated two hours with the chemical substance): 0.9 | The level of expressed mRNA in the presence of chemical substance/The level of expressed mRNA in the absence of chemical substance (yeast gene YEL024W, cells incubated two hours with the chemical substance): 3.8 | The level of expressed mRNA in the presence of chemical substance/The level of expressed mRNA in the absence of chemical substance (yeast gene YEL039C, cells incubated two hours with the chemical substance): 1.3 | The level of expressed mRNA in the presence of chemical substance/The level of expressed mRNA in the absence of chemical substance (yeast gene YER178W): 3.6 | The level of expressed mRNA in the presence of chemical substance/The level of expressed mRNA in the absence of chemical substance (yeast gene YFL057C): 1.5 | The level of expressed mRNA in the presence of chemical substance/The level of expressed mRNA in the absence of chemical substance (yeast gene YFR053C): 3.0 | The level of expressed mRNA in the presence of chemical substance/The level of expressed mRNA in the absence of chemical substance (yeast gene YGL018C, cells incubated two hours with the chemical substance): 1.8 | The level of expressed mRNA in the presence of chemical substance/The level of expressed mRNA in the absence of chemical substance (yeast gene YGL062W): 1.1 | The level of expressed mRNA in the presence of chemical substance/The level of expressed mRNA in the absence of chemical substance (yeast gene YGL187C, cells incubated two hours with the chemical substance): 1.6 | The level of expressed mRNA in the presence of chemical substance/The level of expressed mRNA in the absence of chemical substance (yeast gene YGL191W, cells incubated two hours with the chemical substance): 1.4 | The level of expressed mRNA in the presence of chemical substance/The level of expressed mRNA in the absence of chemical substance (yeast gene YGL205W, cells incubated two hours with the chemical substance): 0.7 | The level of expressed mRNA in the presence of chemical substance/The level of expressed mRNA in the absence of chemical substance (yeast gene YGL256W, cells incubated two hours with the chemical substance): 1.1 | The level of expressed mRNA in the presence of chemical substance/The level of expressed mRNA in the absence of chemical substance (yeast gene YGR043C): 3.2 | The level of expressed mRNA in the presence of chemical substance/The level of expressed mRNA in the absence of chemical substance (yeast gene YGR062C, cells incubated two hours with the chemical substance, 25° C., YPD medium): 0.7 | The level of expressed mRNA in the presence of chemical substance/The level of expressed mRNA in the absence of chemical substance (yeast gene YGR087C, cells incubated two hours with the chemical substance): 1.7 | The level of expressed mRNA in the presence of chemical substance/The level of expressed mRNA in the absence of chemical substance (yeast gene YGR174C, cells incubated two hours with the chemical substance): 0.6 | The level of expressed mRNA in the presence of chemical substance/The level of expressed mRNA in the absence of chemical substance (yeast gene YGR192C): 3.8 | The level of expressed mRNA in the presence of chemical substance/The level of expressed mRNA in the absence of chemical substance (yeast gene YGR244C): 1.6 | The level of expressed mRNA in the presence of chemical substance/The level of expressed mRNA in the absence of chemical substance (yeast gene YGR254W): 3.8 | The level of expressed mRNA in the presence of chemical substance/The level of expressed mRNA in the absence of chemical substance (yeast gene YHR179W): 2.6 | The level of expressed mRNA in the presence of chemical substance/The level of expressed mRNA in the absence of chemical substance (yeast gene YIL160C): 2.3 | The level of expressed mRNA in the presence of chemical substance/The level of expressed mRNA in the absence of chemical substance (yeast gene YIR031C, cells incubated two hours with the chemical substance): 0.6 | The level of expressed mRNA in the presence of chemical substance/The level of expressed mRNA in the absence of chemical substance (yeast gene YJL052W): 4.0 | The level of expressed mRNA in the presence of chemical substance/The level of expressed mRNA in the absence of chemical substance (yeast gene YJL121C, cells incubated two hours with the chemical substance): 1.9 | The level of expressed mRNA in the presence of chemical substance/The level of expressed mRNA in the absence of chemical substance (yeast gene YJL166W, cells incubated two hours with the chemical substance): 1.6 | The level of expressed mRNA in the presence of chemical substance/The level of expressed mRNA in the absence of chemical substance (yeast gene YJL216C, cells incubated two hours with the chemical substance): 2.2 | The level of expressed mRNA in the presence of chemical substance/The level of expressed mRNA in the absence of chemical substance (yeast gene YJR009C): 5.6
